Columns and labels:
Assay in all cases: CTG-3D luminescence at 96 h relative to day-0 seeding control (ratio to day 0); higher = more growth / less cytotoxicity; PDxO 3D drug screen, 96 h, CTG-3D normalised to day-0 seeding control.
HCI-001 = system: HCI-001 (organoid from a triple-negative breast cancer xenograft)
HCI-005.E2 = system: HCI-005.E2 (organoid from a breast cancer xenograft with a HER2-positive history)
HCI-011.E2 = system: HCI-011.E2 (organoid from an ER-positive breast cancer xenograft)
HCI-019 = system: HCI-019 (organoid from a triple-negative breast cancer xenograft)
HCI-024 = system: HCI-024 (organoid from a breast cancer xenograft)

C=CC(=O)N1CCC[C@@H](n2nc(-c3ccc(Oc4ccccc4)cc3)c3c(N)ncnc32)C1 [ibrutinib]
CTG-3D luminescence at 96 h
Conditions | 12.5 pM | 0.00025 µM | 0.005 µM | 0.1 µM | 1 µM | 10 µM | 100 µM | 625 fM
HCI-001, days in culture: 240 | 1.62 | 0.923 | 0.958 | 1.01 | 0.901 | 0.951 | -0.0017 | 1.14
HCI-001, days in culture: 260 | 2.29 | 1.15 | 2.12 | 0.971 | 1.31 | 1.12 | -0.00311 | 1.46
HCI-001, days in culture: 269 | 1.59 | 1.71 | 1.51 | 1.41 | 1.06 | 1.38 | -0.0108 | 1.48
HCI-001, days in culture: 327 | 1.45 | 1.07 | 1.49 | 1.3 | 1.25 | 0.932 | -0.00545 | 1.92
HCI-001, days in culture: 346 | 1.37 | 1.36 | 1.14 | 0.896 | 1.23 | 1.15 | -0.00544 | 1.3
HCI-001, days in culture: 364 | 1.37 | 1.18 | 1.57 | 0.992 | 1.12 | 1.02 | -0.00371 | 1.6
HCI-011.E2, days in culture: 74 | 2.44 | 2.67 | 1.96 | 2.48 | 2.83 | 2.44 | 0.00445 | 2.75
HCI-019, days in culture: 110 | 1.83 | 0.982 | 1.32 | 2.18 | 1.21 | 1.26 | -0.00836 | 2.04
HCI-019, days in culture: 131 | 2.58 | 3.79 | 2.31 | 2.19 | 1.24 | 2.27 | -0.0163 | 2.86
HCI-019, days in culture: 152 | 3.76 | 3.16 | 2.83 | 2.13 | 1.54 | 1.75 | -0.00421 | 2.48
HCI-024, days in culture: 105 | 1.56 | 1.54 | 1.35 | 1.46 | 1.32 | 1.61 | -0.00218 | 1.84
HCI-024, days in culture: 122 | 2.18 | 2.8 | 2.14 | 1.49 | 1.64 | 1.91 | -0.00165 | 3.5
HCI-024, days in culture: 163 | 1.47 | 2.09 | 2.1 | 2.44 | 1.92 | 1.75 | 0.00762 | 2.03

CTG-3D luminescence at 96 h
Conditions | 12.5 pM | 0.00025 µM | 0.005 µM | 0.1 µM | 1 µM | 10 µM | 100 µM | 625 fM
HCI-005.E2 | 1.47 | 2 | 1.22 | 1.93 | 1.38 | 0.629 | -0.00377 | 1.61
HCI-011.E2 | 1.7 | 1.71 | 1.45 | 2 | 2.1 | 2.03 | 0.00409 | 1.84

O=C(/C=C/c1cccnc1)NCCCCC1CCN(C(=O)c2ccccc2)CC1 [FK866]
CTG-3D luminescence at 96 h
Conditions | 12.5 pM | 0.00025 µM | 0.005 µM | 0.1 µM | 1 µM | 10 µM | 100 µM | 625 fM
HCI-001, days in culture: 240 | 1.51 | 1.26 | 0.813 | 0.167 | 0.113 | 0.0983 | 0.134 | 1.79
HCI-001, days in culture: 260 | 2.05 | 0.894 | 0.497 | 0.126 | 0.107 | 0.113 | 0.125 | 1.44
HCI-001, days in culture: 269 | 1.52 | 1.61 | 1.1 | 0.0874 | 0.0522 | 0.0578 | 0.0645 | 1.6
HCI-001, days in culture: 327 | 1.45 | 0.495 | 0.617 | 0.125 | 0.0812 | 0.0548 | 0.0869 | 1.78
HCI-001, days in culture: 346 | 1.25 | 1.28 | 0.416 | 0.063 | 0.0715 | 0.0541 | 0.128 | 1.08
HCI-001, days in culture: 364 | 1.18 | 1.03 | 0.913 | 0.0658 | 0.0511 | 0.0476 | 0.0948 | 1.5
HCI-011.E2, days in culture: 74 | 2.62 | 2.62 | 2.29 | 1.99 | 2.77 | 2.79 | 2.06 | 2.32
HCI-019, days in culture: 110 | 2.11 | 0.4 | 0.0804 | 0.0554 | 0.0484 | 0.0475 | 0.042 | 2.64
HCI-019, days in culture: 131 | 1.91 | 1.42 | 0.669 | 0.542 | 0.448 | 0.436 | 0.137 | 3.64
HCI-019, days in culture: 152 | 1.88 | 1.08 | 0.557 | 0.476 | 0.267 | 0.142 | 0.0796 | 1.93
HCI-024, days in culture: 105 | 1.87 | 1.72 | 0.265 | 0.2 | 0.157 | 0.205 | 0.272 | 2.1
HCI-024, days in culture: 122 | 2.43 | 2.32 | 0.648 | 0.179 | 0.209 | 0.222 | 0.172 | 2.91
HCI-024, days in culture: 163 | 1.91 | 2.21 | 0.305 | 0.221 | 0.181 | 0.166 | 0.306 | 1.89

CTG-3D luminescence at 96 h
Conditions | 12.5 pM | 0.00025 µM | 0.005 µM | 0.1 µM | 1 µM | 10 µM | 100 µM | 625 fM
HCI-005.E2 | 1.39 | 1.97 | 1.39 | 0.142 | 0.135 | 0.267 | 0.166 | 1.93
HCI-011.E2 | 1.74 | 1.7 | 1.37 | 1.62 | 1.48 | 1.75 | 1.55 | 1.87

C/C=C1\NC(=O)[C@H]2CSSCC/C=C/[C@H](CC(=O)N[C@H](C(C)C)C(=O)N2)OC(=O)[C@H](C(C)C)NC1=O [romidepsin]
CTG-3D luminescence at 96 h
Conditions | 12.5 pM | 0.00025 µM | 0.005 µM | 0.1 µM | 1 µM | 10 µM | 100 µM | 625 fM
HCI-001, days in culture: 240 | 1.85 | 1.11 | 0.504 | 0.308 | 0.442 | 0.0301 | -0.0763 | 1.57
HCI-001, days in culture: 260 | 2.41 | 0.948 | 1.41 | 0.615 | 0.865 | 0.141 | -0.0313 | 1.64
HCI-001, days in culture: 269 | 1.82 | 1.72 | 0.783 | 0.423 | 0.38 | 0.00899 | -0.0103 | 1.64
HCI-001, days in culture: 327 | 1.6 | 1.01 | 0.868 | 0.329 | 0.501 | -0.124 | -0.199 | 1.75
HCI-001, days in culture: 346 | 1.68 | 1.28 | 0.579 | 0.303 | 0.317 | -0.107 | -0.155 | 1.21
HCI-001, days in culture: 364 | 1.68 | 1.04 | 0.67 | 0.274 | 0.349 | 0.0111 | -0.0729 | 1.63
HCI-011.E2, days in culture: 74 | 2.09 | 2.7 | 1.63 | 0.493 | 0.486 | 0.0744 | -0.0129 | 1.63
HCI-019, days in culture: 110 | 1.6 | 1.12 | 0.598 | 0.376 | 0.0772 | 0.000883 | -0.00824 | 2.26
HCI-019, days in culture: 131 | 2.29 | 2.76 | 1.06 | 0.975 | 0.441 | 0.00479 | -0.00826 | 3.05
HCI-019, days in culture: 152 | 1.95 | 1.43 | 1.55 | 0.685 | 0.489 | 0.00416 | -0.00783 | 1.53
HCI-024, days in culture: 105 | 1.55 | 1.48 | 0.453 | 0.311 | 0.111 | 0.00592 | -0.00576 | 1.92
HCI-024, days in culture: 122 | 1.84 | 2.34 | 0.619 | 0.277 | 0.107 | 0.00509 | -0.00823 | 1.91
HCI-024, days in culture: 163 | 1.76 | 1.96 | 0.576 | 0.334 | 0.124 | 0.00767 | -0.00793 | 1.96

CTG-3D luminescence at 96 h
Conditions | 12.5 pM | 0.00025 µM | 0.005 µM | 0.1 µM | 1 µM | 10 µM | 100 µM | 625 fM
HCI-005.E2 | 1.07 | 0.734 | 0.155 | 0.0737 | 0.0546 | 0.00415 | -0.00471 | 0.827
HCI-011.E2 | 1.55 | 1.34 | 0.559 | 0.47 | 0.382 | 0.0141 | -0.00792 | 0.902

CNC(=O)c1cccc(-c2ccc3c(N4CCOC[C@@H]4C)nc(N4CCOC[C@@H]4C)nc3n2)c1 [vistusertib]
CTG-3D luminescence at 96 h
Conditions | 12.5 pM | 0.00025 µM | 0.005 µM | 0.1 µM | 1 µM | 10 µM | 100 µM | 625 fM
HCI-001, days in culture: 240 | 1.6 | 1.12 | 0.733 | 0.68 | 0.589 | 0.404 | 0.27 | 1.82
HCI-001, days in culture: 260 | 2.82 | 1.1 | 1.62 | 1.31 | 0.501 | 0.89 | 0.406 | 1.23
HCI-001, days in culture: 269 | 1.63 | 1.62 | 1.55 | 1.03 | 0.524 | 0.533 | 0.378 | 1.6
HCI-001, days in culture: 327 | 1.63 | 1.59 | 1.68 | 1.5 | 1.09 | 0.485 | 0.721 | 1.93
HCI-001, days in culture: 346 | 1.29 | 1.31 | 1.14 | 0.926 | 0.641 | 0.549 | 0.566 | 1.28
HCI-001, days in culture: 364 | 1.51 | 1.3 | 1.38 | 0.795 | 0.495 | 0.606 | 0.601 | 1.78
HCI-011.E2, days in culture: 74 | 3.1 | 2.54 | 2.03 | 1 | 0.26 | 0.247 | 0.0598 | 2.38
HCI-019, days in culture: 110 | 1.84 | 1.95 | 1.82 | 1.67 | 0.591 | 0.882 | 0.492 | 2.38
HCI-019, days in culture: 131 | 2.64 | 4.03 | 2.46 | 2.64 | 0.938 | 1.24 | 0.736 | 3.83
HCI-019, days in culture: 152 | 2.51 | 2.65 | 3.11 | 1.64 | 0.846 | 0.759 | 0.555 | 2.52
HCI-024, days in culture: 105 | 1.75 | 1.79 | 1.36 | 1.28 | 0.65 | 0.778 | 0.554 | 1.79
HCI-024, days in culture: 122 | 2.25 | 2.36 | 2.05 | 1.84 | 0.987 | 1.07 | 0.813 | 2.77
HCI-024, days in culture: 163 | 1.9 | 2.22 | 1.73 | 2.31 | 1.19 | 0.949 | 0.662 | 1.95

CTG-3D luminescence at 96 h
Conditions | 12.5 pM | 0.00025 µM | 0.005 µM | 0.1 µM | 1 µM | 10 µM | 100 µM | 625 fM
HCI-005.E2 | 1.89 | 2.02 | 2.14 | 2.05 | 0.528 | 0.53 | 0.57 | 1.98
HCI-011.E2 | 1.477 | 1.841 | 1.52 | 1.23 | 0.256 | 0.212 | 0.057 | 1.59

Reference: the supplement of paper PMC8882468
